Assay [1] concerns βARR1 MCL site mutants coupling to pβ2V2R. The experiment in a line: [3H]-Fen binding with βARR1 MCL site mutants. Conditions: mutations P131A, D135A, K138A, C140A and E283A. It is filed as biochemical, Rattus norvegicus. Here is the method:
(§1) The expression and purification of β-arrestins have been described previously[44],[62]–[64]. In brief, E. coli BL21 (DE3) pLysS cells (New England Biolabs: C2527I) carrying pGEX4T1-Rattus norvegicus βARR1 or βARR2 construct, with their C terminus truncated (at amino acid 393 or 394, respectively), were cultured in Terrific Broth (Teknova) medium at 37 °C. After OD600 reached 0.6–0.8, the cells were induced with 0.1 mM isopropyl-β-D-thiogalactopyranoside (IPTG) at 18 °C overnight. […] Eluted fractions were analysed by SDS–PAGE, pooled, concentrated using 30 kDa MWCO Amicon Ultra-15 Centrifugal Filter devices, flash-frozen in liquid nitrogen, and stored in aliquots at −80 °C. […] Protein concentrations for each protein were determined by ultraviolet absorption at 280 nm and extinction coefficients estimated using the ExPASy ProtParam tool[67].
To assess the effects of β-arrestin modulators on β-arrestin- or Gαs–βγ-promoted high-affinity agonist binding, [^3H]-Fen binding assays were performed using membranes from Sf9 cells expressing phosphorylated β2V2R (pβ2V2R) or β2AR[28]. […] Bound [^3H]-Fen was extracted overnight in scintillation fluid and quantified by scintillation counting. Specific binding was calculated by subtracting nonspecific from total binding.

The target of the next assay is T1, βARR1 R285A (Rattus norvegicus, UniProt P29066, R285A).
T1 construct: βARR1 or βARR2 construct, with their C terminus truncated (at amino acid 393 or 394, respectively); GST (pGEX4T1) (N, cleaved yes); made in house; host or cells: E. coli BL21 (DE3) pLysS
In words: ITC binding to βARR1 mutant R285A. How it is done: as §1, with “overnight. Bacteria were collected by centrifugation (4,000 rpm), and cell pellets were resuspended in lysis buffer (20 mM HEPES, pH 8, 150 mM NaCl, 10% glycerol, 1 mM EDTA, 0.2 mM dithiothreitol (DTT), 1 mM phenylmethylsulfonyl fluoride, and 1 mM benzamidine) at 4 °C for 1 h.” for “overnight.”
ITC measurements were performed on a MicroCal iTC200 system at 25 °C. […] Protein concentrations were determined by spectrophotometry at 280 nm, using extinction coefficients calculated from each protein sequence via the ProtParam program. […]

Another assay concerns β-arrestin. The experiment in a line: Functional assays (not specified). Conditions: peer review reply.

T1 sequence (P29066 1-393 R285A): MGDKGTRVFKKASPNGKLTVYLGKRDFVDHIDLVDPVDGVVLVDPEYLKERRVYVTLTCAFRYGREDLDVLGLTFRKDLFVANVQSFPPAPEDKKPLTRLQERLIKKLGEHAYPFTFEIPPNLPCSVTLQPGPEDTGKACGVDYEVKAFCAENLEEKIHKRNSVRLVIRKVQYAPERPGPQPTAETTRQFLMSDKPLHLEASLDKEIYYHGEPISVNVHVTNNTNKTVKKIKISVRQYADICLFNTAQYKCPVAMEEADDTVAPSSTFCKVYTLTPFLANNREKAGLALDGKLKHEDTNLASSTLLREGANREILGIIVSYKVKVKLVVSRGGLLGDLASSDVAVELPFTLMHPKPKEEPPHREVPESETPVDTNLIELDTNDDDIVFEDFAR

With `C=C1C(=O)[C@]23[C@H](O)[C@H]1CC[C@H]2[C@@]12CO[C@]3(O)[C@@H](O)[C@@H]1C(C)(C)CC[C@@H]2O` [Cmpd-5, (1S,4aR,5S,6S,6aR,9S,11aS,11bS,14R)-1,5,6,14-tetrahydroxy−4,4-dimethyl-8-methylenedecahydro-1H-6,11b-(epoxymethano)-6a,9-methanocyclohepta[a]naphthalen-7(8H)-one], the “effect of mutation on Cmpd-5 inhibition of βARR1 coupling” value in assay [1] is given as “negligible effects”. Further, the “Kd fold over WT, βARR1 R285A” value on βARR1 R285A turned out to be 46.5 fold. For the same molecule, the “ΔH, βARR1 R285A” value at βARR1 R285A (25 °C) is -1.5 kcal/mol. Besides, the “binding affinity from functional assays” value in the assay on β-arrestin is 2 to 10 µM.

Source of the values: PMC13489962, “Small-molecule modulation of β-arrestins” (Nature, 2026).
